According to PubChem BioAssay AID624258 (Broad Institute, 2012):
Several values for one entry are separate records, joined by “and”; a condition that tells them apart may be missing. Equal values may be shown once. Activity calls are given as the source filed them. No rule for the calls is given here.

Assay: SKN7 mediated toxicity in Saccharomyces cerevisiae, growth rescue counterscreen, dose confirmation (AID 624258);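 also: growth read after three days of incubation at 30 °C; 0% = median of neutral control wells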
Settings: S. cerevisiae SKN7-toxicity growth rescue, plate reader; at 6.8 µM (top of the series)
With `CC(C)(C)C(=O)N1CCN(c2ccc([N+](=O)[O-])cc2Cl)CC1` the growth rescue activity was -14.7% (inactive). In the case of `CC(C)NC(=O)NC(=O)COC(=O)c1ccc([N+](=O)[O-])cc1Cl`, the growth rescue activity was -6.28% (inactive). With `CCCn1c2ccccc2c2cc(C(=O)O)ccc21` the growth rescue activity was -29.3% (inactive).

Same assay, conditions: S. cerevisiae SKN7-toxicity growth rescue, plate reader; at 19.5 µM (top of the series)
For `S=C(NCc1ccco1)Nc1ccc(Oc2ccc(Cl)cc2)cc1`, the growth rescue activity was 26.1% (inactive). With `O=c1c2ccccc2nc(-c2ccc(-c3ccccc3)cc2)n1-c1ccncc1` the growth rescue activity was -56.1% (inactive). In the case of `Oc1ccc(N=Nc2ccc3c(c2)OCCO3)c2cccnc12`, the growth rescue activity was -42.4% (inactive). With `O=C(C1COc2ccccc2O1)N1CCN(c2ccccc2Cl)CC1` (stereo unspecified) the growth rescue activity was -13% (inactive). With `Clc1nc(-c2ccccn2)nc2scc(-c3ccccc3)c12` the growth rescue activity was -76.2% (inactive). With `Cc1ccc(Nc2cc(C)nn2-c2nc(C)cc(C)n2)cc1` the growth rescue activity was -73.3% (inactive). In the case of `COC(=O)c1cc(C#N)c(Oc2ccc(F)cc2)nc1C`, the growth rescue activity was -11.6% (inactive). With `C=CCn1c(-c2cc(-c3ccc(C)cc3)nc3ccccc23)n[nH]c1=S` the growth rescue activity was 0.203% (inactive). In the case of `O=C(Nc1ccc(Br)c(C(F)(F)F)c1)c1ccccc1`, the growth rescue activity was -78.2% (inactive). In the case of `COC(=O)c1cccc2c1NC(=O)C2=O`, the growth rescue activity was -14.3% (inactive). In the case of `C=CCc1cccc(C=Nc2cc(Br)ccc2O)c1O`, the growth rescue activity was -45% (inactive). In the case of `O=c1c(/C=N/O)coc2ccc(Cl)cc12`, the growth rescue activity was -4.03% (inactive). For `O/N=C/c1ccccc1OCc1ccc(Cl)cc1`, the growth rescue activity was 10.8% (inactive). With `CCOC(=O)c1ccc(N2C(=O)CC(N3CCC(O)(c4ccc(Cl)cc4)CC3)C2=O)cc1` (stereo unspecified) the growth rescue activity was -16.1% (inactive). For `O=C(c1cc(COc2ccc(F)cc2Cl)on1)N1CCC(c2ccncc2)CC1`, the growth rescue activity was -20.9% (inactive). In the case of `Nc1ccc(CC2=NCCN2)cc1`, the growth rescue activity was 34.1% (inactive). For `Clc1ccc(COC(Cn2ccnc2)c2ccc(Cl)cc2Cl)c(Cl)c1` (stereo unspecified), the growth rescue activity was -74.2% (inactive) and -75.5% (inactive). For `S=c1[nH]nc(-c2ccco2)n1/N=C/c1ccc(Br)s1`, the growth rescue activity was 30.2% (inactive). With `CN(Cc1ccc(Cl)s1)C(=O)CCl` the growth rescue activity was 19.3% (inactive). In the case of `O=[N+]([O-])c1cc(Oc2cccnc2)cc([N+](=O)[O-])c1`, the growth rescue activity was 5.86% (inactive). In the case of `Cc1ccc(S(=O)(=O)N(C(=O)c2ccncc2)c2ccc(OC(=O)c3ccncc3)cc2)cc1`, the growth rescue activity was -57.3% (inactive). In the case of `C/C(=N\NC(=O)COc1ccccc1-c1ccccc1)c1ccccn1`, the growth rescue activity was -11.5% (inactive). With `COc1ccc(N(C(=O)c2ccncc2)S(=O)(=O)c2ccccc2)cc1` the growth rescue activity was -61.4% (inactive). With `Cc1ccc(C)c(/C=C/C(=O)c2ccccc(=O)c2O)c1` the growth rescue activity was -77% (inactive). For `CCC(C)n1ncn(-c2ccc(N3CCN(c4ccc(OCC5COC(Cn6cncn6)(c6ccc(Cl)cc6Cl)O5)cc4)CC3)cc2)c1=O` (stereo unspecified), the growth rescue activity was -70.7% (inactive). With `CC1(C)C2CCC1(C)C(OC(=O)c1ccc(O)cc1)C2` (stereo unspecified) the growth rescue activity was -86.9% (inactive). In the case of `CN(C)c1nc(SCc2ccc(Cl)cc2)nc2c1CCCC2`, the growth rescue activity was -65.9% (inactive). With `Fc1ccc(N2CCN(c3ccc4c(C(F)(F)F)cc(C(F)(F)F)nc4n3)CC2)cc1` the growth rescue activity was 53.6% (inactive). With `C[C@@]12CCC3[C@@](CCC4[C@@]3(C)CCC[C@@]4(C)C(=O)NCc3ccccc3)(CC1=O)C2` (stereo partly specified) the growth rescue activity was -51.4% (inactive). With `N#Cc1c(-c2ccco2)c2c([nH]c1=S)CCCC2` the growth rescue activity was -16.7% (inactive). For `O=C(Nc1nnc(-c2cccs2)o1)c1cccc(Oc2ccccc2)c1`, the growth rescue activity was -6.4% (inactive). In the case of `CC(=O)Nc1cccc(NC(=O)CSc2ccc(-c3ccccn3)nn2)c1`, the growth rescue activity was -39.9% (inactive). In the case of `O=C(CCNS(=O)(=O)c1ccc(Br)s1)N1CCN(c2ccccc2)CC1`, the growth rescue activity was -25.4% (inactive). With `O=C(COC(=O)c1ccc([N+](=O)[O-])o1)NC12CC3CC(CC(C3)C1)C2` the growth rescue activity was -18.4% (inactive). For `CC(CNC(=O)COc1ccccc1)OC(=O)Nc1ccc(Cl)c(Cl)c1` (stereo unspecified), the growth rescue activity was -93.2% (inactive). With `O=C1OCC(CO)(CO)N=C1NNc1ccc(Cl)c(Cl)c1` the growth rescue activity was -52.3% (inactive). For `Cc1cc(/C=C2\SC(=S)N(C)C2=O)c(C)n1-c1ccc(O)cc1`, the growth rescue activity was -39.6% (inactive). With `CCC(C(=O)c1ccc2ncccc2c1)c1ccccc1` (stereo unspecified) the growth rescue activity was -32.2% (inactive). With `CC1=C(C)C(=O)C(CCCCC#CCCCC#CCO)=C(C)C1=O` the growth rescue activity was -34.8% (inactive). In the case of `O=C(CC1CC2CCC1C2)Nc1nc(-c2ccccn2)cs1` (stereo unspecified), the growth rescue activity was -53.4% (inactive). In the case of `C=CCOCCN(C)C1=NS(=O)(=O)c2cc([N+](=O)[O-])ccc21`, the growth rescue activity was -14.3% (inactive). With `CCCc1c(C)nn(C(=O)/C(C#N)=N/Nc2ccccc2[N+](=O)[O-])c1C` the growth rescue activity was -8.75% (inactive). In the case of `CC(=O)NC(c1cccc([N+](=O)[O-])c1)c1ccc2cccnc2c1O` (stereo unspecified), the growth rescue activity was -39.9% (inactive).
